According to patent publication US8299056B2 (Signal Pharmaceuticals, LLC, priority 2008, dated 2012):
Read-outs that look alike come from different tables or passages of the source.

Target: T1, Syk (Homo sapiens, UniProt P43405)
T1 construct: purchased Carna Biosciences
Assay: Syk HTRF assay
Format: biochemical
In short: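 Read-out is the 665 nm/615 nm time-resolved fluorescence ratio after EDTA stop and Eu-anti-phosphotyrosine plus streptavidin-DyLight 647 detection. Reaction ran 1 h at room temperature with start mix of 87.5 μM ATP and 80 nM substrate peptide in pH 7.6 HEPES/MgCl2 buffer.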

[1] = read-out: Activity Level (Syk HTRF assay IC50)
[2] = IC50 activity level, read-out: Activity Level
[3] = activity levels A-D, read-out: Activity Level (IC50 in the Syk HTRF assay)

IC50 [2] [nM] | IC50 [3] [nM] | Compound | further results
 |  | CNC(=O)c1ccc(Nc2nc3cccc(-c4cc(Cl)cc(-c5ccccc5C(N)=O)c4)n3n2)cc1 [compound 5, 3′-chloro-5′-(2-(4-(methylcarbamoyl)phenylamino)-[1,2,4]triazolo[1,5-a]pyridin-5-yl)biphenyl-2-carboxamide] | IC50 [1]: 0.005 to 250 nM
0.005 to 250 |  | CC1(C)C(=O)Nc2cc(Nc3nc4cccc(N5CCOCC5)n4n3)ccc21 [Example 571, 3,3-dimethyl-6-(5-morpholino-[1,2,4]triazolo[1,5-a]pyridin-2-ylamino)indolin-2-one] | 
0.005 to 250 |  | CC1(C)C(=O)Nc2cc(Nc3nc4cccc(CC5CCOC5)n4n3)ccc21 (single isomer, unassigned; enantiomer 1) [Example 561, 3,3-dimethyl-6-(5-((tetrahydrofuran-3-yl)methyl)-[1,2,4]triazolo[1,5-a]pyridin-2-ylamino)indolin-2-one (enantiomer 1)] | 
 | 1000 to 10000 | O=C1CN(Cc2cccc3nc(Nc4ccc(C(F)(F)F)cc4)nn23)C(=O)N1 [Example 252, 1-((2-(4-(trifluoromethyl)phenylamino)-[1,2,4]triazolo[1,5-a]pyridin-5-yl)methyl)imidazolidine-2,4-dione] | 
250 to 500 |  | Fc1ccc(Nc2nc3cccc(NC4CCCCNC4)n3n2)cc1 (stereo not drawn) [Example 427, N^5-(azepan-3-yl)-N^2-(4-fluorophenyl)-[1,2,4]triazolo[1,5-a]pyridine-2,5-diamine] | 
 | 1000 to 10000 | FC(F)(F)c1ccc(Nc2nc3cccc(O[C@H]4CCCNC4)n3n2)cc1 [Example 362, (S)-5-(piperidin-3-yloxy)-N-(4-(trifluoromethyl)phenyl)-[1,2,4]triazolo[1,5-a]pyridin-2-amine] | 
0.005 to 250 |  | OCCNc1cc(-c2cccc3nc(Nc4ccccc4)nn23)ccn1 [Example 443, 2-(4-(2-(phenylamino)-[1,2,4]triazolo[1,5-a]pyridin-5-yl)pyridin-2-ylamino)ethanol] | 
 | 1000 to 10000 | OCC1CCN(Cc2cccc3nc(Nc4ccc(C(F)(F)F)cc4)nn23)CC1 [Example 274, (1-((2-(4-(trifluoromethyl)phenylamino)-[1,2,4]triazolo[1,5-a]pyridin-5-yl)methyl)piperidin-4-yl)methanol] | 
 |  | Cc1cc(Nc2nc3cccc(CC4CCOCC4)n3n2)cc2c1C(C)(C)C(=O)N2 [compound 126] | IC50 [1]: 0.005 to 250 nM
 | 0.005 to 250 | COCCOc1cc(Nc2nc3cccc(N[C@H]4CC[C@@H](O)CC4)n3n2)ccc1F [Example 210, cis-4-(2-(4-fluoro-3-(2-methoxyethoxy)phenylamino)-[1,2,4]triazolo[1,5-a]pyridin-5-ylamino)cyclohexanol] | 
1000 to 10000 |  | NCCn1cnc2cc(-c3cccc4nc(Nc5ccccc5)nn34)ccc21 [Example 490, 5-(1-(2-aminoethyl)-1H-benzo[d]imidazol-5-yl)-N-phenyl-[1,2,4]triazolo[1,5-a]pyridin-2-amine] | 
 | 0.005 to 250 | Cc1n[nH]c2cc(Nc3nc4cccc(N[C@H]5CC[C@H](O)CC5)n4n3)ccc12 (stereo in doubt) [Example 201, trans-4-(2-(3-methyl-1H-indazol-6-ylamino)-[1,2,4]triazolo[1,5-a]pyridin-5-ylamino)cyclohexanol] | 
 |  | Cn1nc(NC2CCOCC2)c2ccc(Nc3nc4cccc(CC5CCOCC5)n4n3)cc21 [Example 99] | IC50 [1]: 1000 to 10000 nM
 |  | CC1(C)C(=O)Nc2cc(Nc3nc4cccc(N[C@H]5CC[C@@](C)(O)CC5)n4n3)ccc21 [Example 163, cis-6-(5-(4-hydroxy-4-methylcyclohexylamino)-[1,2,4]triazolo[1,5-a]pyridin-2-ylamino)-3,3-dimethylindolin-2-one] | IC50 [1]: 0.005 to 250 nM
1000 to 10000 |  | CN(C)c1cccc2nc(Nc3ccccc3)nn12 [Example 477, N^5,N^5-dimethyl-N^2-phenyl-[1,2,4]triazolo[1,5-a]pyridin-2,5-diamine] | 
0.005 to 250 |  | Cn1c(=O)[nH]c2cc(Nc3nc4cccc(N[C@H]5CC[C@@H](O)CC5)n4n3)ccc21 [Example 570, cis-5-(5-(4-hydroxycyclohexylamino)-[1,2,4]triazolo[1,5-a]pyridin-2-ylamino)-1-methyl-1H-benzo[d]imidazol-2(3H)-one] | 
1000 to 10000 |  | Cc1conc1-c1cccc2nc(Nc3ccccc3)nn12 [Example 435, 5-(4-methylisoxazol-3-yl)-N-phenyl-[1,2,4]triazolo[1,5-a]pyridin-2-amine] | 
500 to 1000 |  | Cc1cc(Nc2nc3cccc(NC4CCOCC4)n3n2)cnc1N1CCOCC1 [Example 547, N^2-(5-methyl-6-morpholinopyridin-3-yl)-N^5-(tetrahydro-2H-pyran-4-yl)-[1,2,4]triazolo[1,5-a]pyrridine-2,5-diamine] | 
 | 1000 to 10000 | NCCCOc1cccc2nc(Nc3ccc(C(F)(F)F)cc3)nn12 [Example 321, 5-(3-aminopropoxy)-N-(4-(trifluoromethyl)phenyl)-[1,2,4]triazolo[1,5-a]pyridin-2-amine] | 
 | 1000 to 10000 | O[C@H]1CC[C@@H](Nc2cccc3nc(Nc4ccccc4F)nn23)CC1 [Example 357, cis-4-(2-(2-fluorophenylamino)-[1,2,4]triazolo[1,5-a]pyridin-5-ylamino)cyclohexanol] | 
 |  | CNC(=O)c1ccc(Nc2nc3cccc(-c4cccc(Cl)c4)n3n2)cc1 [compound 13, 4-(5-(3-chlorophenyl)-[1,2,4]triazolo[1,5-a]pyridin-2-ylamino)-N-methylbenzamide] | IC50 [1]: 0.005 to 250 nM
